Biological target: human recombinant LRRK2 protein (Homo sapiens (Human), UniProt Q5S007)
Assay: LRRK2 Kinase Activity Assay (ADP-Glo)
Format: biochemical
Conditions: LRRK2 wt; LRRKtide peptide and ATP substrates; 1h-incubation at 37° C.
Description: LRRK2 Kinase reactions were carried out in 384-well white polystyrene plates in a final volume of 6 μl using ADP-Glo™ Kinase Assay kit (Promega Corp.). Compound and substrates (LRRKtide peptide and ATP) in assay buffer were first dispensed in wells. Kinase reaction was then started by the addition of human recombinant LRRK2 protein. After 1h-incubation at 37° C., the enzymatic reaction was stopped by the addition of 6 μl of ADP-Glo Reagent-1 and an additional 40-minutes incubation at 23° C. (residual ATP depletion). A final 30-minutes incubation after 12 μL reagent-2 addition (ADP to ATP conversion and luciferin/luciferase reaction) was performed before luminescent signal acquisition (EnVision™ multimode plate reader-PerkinElmer, Inc.). Data from 10 individual concentrations of tested compounds (N=2) were fitted (XLfit™-ID Business Solutions Ltd) to deliver IC50s (compound concentration leading to 50% inhibition of reference enzymatic activity).
The compounds are dissolved to 5 mM in DMSO. When needed, solutions are sonicated in a bath sonicator.
Table 2 provides the IC50 values of the compounds according to the invention, obtained using the above-mentioned kinase assay. Activities are represented as +++, ++ and +, having the following meanings: • +++ means IC50<10 nM • ++ means 10 nM≤IC50<100 nM • + means 100 nM≤IC50<1 μM.

Chain of human recombinant LRRK2 protein (Q5S007 whole entry): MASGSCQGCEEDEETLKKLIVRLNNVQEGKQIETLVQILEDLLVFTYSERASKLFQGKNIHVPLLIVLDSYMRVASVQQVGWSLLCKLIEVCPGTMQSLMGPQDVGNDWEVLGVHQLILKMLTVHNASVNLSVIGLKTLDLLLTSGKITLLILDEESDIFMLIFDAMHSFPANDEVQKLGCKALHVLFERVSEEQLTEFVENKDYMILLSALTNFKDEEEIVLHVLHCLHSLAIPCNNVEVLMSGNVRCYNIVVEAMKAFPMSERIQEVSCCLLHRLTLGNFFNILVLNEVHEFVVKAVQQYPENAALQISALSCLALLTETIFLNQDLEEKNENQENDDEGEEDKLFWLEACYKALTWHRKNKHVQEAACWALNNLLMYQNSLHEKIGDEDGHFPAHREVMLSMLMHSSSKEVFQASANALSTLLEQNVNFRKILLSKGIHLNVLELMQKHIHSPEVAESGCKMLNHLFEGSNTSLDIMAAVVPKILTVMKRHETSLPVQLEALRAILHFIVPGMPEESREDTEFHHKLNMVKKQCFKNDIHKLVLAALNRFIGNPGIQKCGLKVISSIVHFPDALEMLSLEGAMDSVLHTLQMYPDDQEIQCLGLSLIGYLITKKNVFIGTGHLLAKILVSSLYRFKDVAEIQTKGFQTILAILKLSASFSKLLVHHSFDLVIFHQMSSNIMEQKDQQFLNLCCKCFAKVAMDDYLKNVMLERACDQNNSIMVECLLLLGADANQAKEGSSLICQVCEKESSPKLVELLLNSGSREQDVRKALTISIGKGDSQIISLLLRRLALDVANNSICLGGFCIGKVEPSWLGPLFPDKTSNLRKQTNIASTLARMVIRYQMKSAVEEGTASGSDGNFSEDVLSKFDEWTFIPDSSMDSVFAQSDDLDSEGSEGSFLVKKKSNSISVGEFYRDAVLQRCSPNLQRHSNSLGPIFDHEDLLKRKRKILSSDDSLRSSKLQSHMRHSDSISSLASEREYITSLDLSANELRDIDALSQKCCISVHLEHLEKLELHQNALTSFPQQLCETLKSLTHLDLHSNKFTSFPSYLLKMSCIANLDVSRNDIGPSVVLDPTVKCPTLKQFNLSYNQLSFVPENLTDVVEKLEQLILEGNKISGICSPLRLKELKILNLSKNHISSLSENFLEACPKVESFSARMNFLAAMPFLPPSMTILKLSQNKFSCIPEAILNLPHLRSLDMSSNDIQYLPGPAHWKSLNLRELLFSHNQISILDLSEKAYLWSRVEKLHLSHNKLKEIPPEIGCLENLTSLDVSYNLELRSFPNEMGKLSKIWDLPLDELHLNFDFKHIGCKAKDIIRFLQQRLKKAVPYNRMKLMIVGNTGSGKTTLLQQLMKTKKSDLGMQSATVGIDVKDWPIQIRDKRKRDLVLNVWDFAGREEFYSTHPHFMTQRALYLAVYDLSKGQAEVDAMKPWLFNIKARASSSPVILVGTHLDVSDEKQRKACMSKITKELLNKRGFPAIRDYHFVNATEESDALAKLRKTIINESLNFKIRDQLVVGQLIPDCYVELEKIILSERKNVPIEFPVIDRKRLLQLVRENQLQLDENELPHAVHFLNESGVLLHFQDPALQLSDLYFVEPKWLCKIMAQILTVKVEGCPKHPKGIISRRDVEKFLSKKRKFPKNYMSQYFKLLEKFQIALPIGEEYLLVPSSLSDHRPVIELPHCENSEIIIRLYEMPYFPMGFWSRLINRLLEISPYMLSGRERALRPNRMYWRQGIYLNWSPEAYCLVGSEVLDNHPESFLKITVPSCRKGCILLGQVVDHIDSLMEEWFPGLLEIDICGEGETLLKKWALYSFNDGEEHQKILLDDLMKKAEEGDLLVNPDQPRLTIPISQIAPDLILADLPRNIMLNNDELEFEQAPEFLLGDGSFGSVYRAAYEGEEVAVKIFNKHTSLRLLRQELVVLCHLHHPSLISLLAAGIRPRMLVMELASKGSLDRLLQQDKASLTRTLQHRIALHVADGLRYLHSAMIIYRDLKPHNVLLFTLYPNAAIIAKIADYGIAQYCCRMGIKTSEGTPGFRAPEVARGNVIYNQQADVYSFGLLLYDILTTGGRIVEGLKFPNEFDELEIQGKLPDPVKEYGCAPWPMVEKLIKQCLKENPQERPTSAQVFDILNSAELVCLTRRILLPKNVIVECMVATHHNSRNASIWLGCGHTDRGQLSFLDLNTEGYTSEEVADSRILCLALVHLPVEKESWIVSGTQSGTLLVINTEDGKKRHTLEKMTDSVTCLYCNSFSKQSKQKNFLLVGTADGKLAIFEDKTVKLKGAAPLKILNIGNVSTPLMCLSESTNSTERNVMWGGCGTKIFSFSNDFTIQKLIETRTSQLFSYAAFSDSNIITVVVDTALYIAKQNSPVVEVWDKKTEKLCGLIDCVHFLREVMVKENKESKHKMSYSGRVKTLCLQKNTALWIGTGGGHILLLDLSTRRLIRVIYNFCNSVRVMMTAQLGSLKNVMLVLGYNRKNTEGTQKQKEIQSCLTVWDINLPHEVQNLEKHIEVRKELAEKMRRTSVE

SMILES | IC50 [nM]
CCC1CC2=NN1CCOC(=O)NCCCOc1ccc3[nH]nc2c3c1 (stereo not drawn) [Example 119, 4-ethyl-8,14-dioxa-5,10,19,20,23-pentaazatetracyclo[13.5.2.1^2,5.0^18,21]tricosa-1(20),2(23),15,17,21-pentaen-9-one] | 10 to 100
CC1OC(=O)NCC[C@@H](C)Oc2ccc3[nH]nc(c3c2)-c2ccnc1n2 (single isomer, unassigned) [Example 130, (7R,13R)- or (7S,13R)-7,13-dimethyl-8,14-dioxa-5,10,19,20,23-penta azatetracyclo[13.5.2.1^2,6.0^18,21]tricosa-1(20),2,4,6(23),15,17,21-heptaen-9-one] | 10 to 100
O=C1NCCCOc2ccc3[nH]nc(c3c2)-n2cnc(c2)CCO1 [Example 126, 8,14-dioxa-2,4,10,19,20-pentaazatetracyclo[13.5.2.1^2,5.0^18,21]tricosa-1(20),3,5(23),15(22),16,18(21)-hexaen-9-one] | 10 to 100
CC(C)C1COC(=O)NCCCOc2ccc3[nH]nc(c3c2)-c2cnn1c2 (stereo not drawn) [Example 112, 6-(propan-2-yl)-8,14-dioxa-4,5,10,19,20-pentaazatetracyclo[13.5.2.1^2,5.0^18,21]tricosa-1(20),2(23),3,15(22),16,18(21)-hexaen-9-one] | 10 to 100
CC1CCOc2ccc3[nH]nc(c3c2)-c2cccc(c2)COC(=O)N1 (stereo not drawn) [Example 72, 11-methyl-8,14-dioxa-10,19,20-triazatetracyclo[13.5.2.1^2,6.0^18,21]tricosa-1(20),2,4,6(23),15,17,21-heptaen-9-one] | < 10
CN1CCCOc2ccc3[nH]nc(c3c2)-c2cncc(c2)COC1=O [Example 2, 10-methyl-8,14-dioxa-4,10,19,20-tetraazatetracyclo[13.5.2.1^2,6.0^18,21]tricosa-1(20),2,4,6(23),15,17,21-heptaen-9-one] | 10 to 100
O=C1NCCCOc2ccc3[nH]nc(c3c2)-c2cc(F)cc(c2)CO1 [Example 3, 4-fluoro-8,14-dioxa-10,19,20-triazatetracyclo[13.5.2.1^2,6.0^18,21]tricosa-1(20), 2,4,6(23),15,17,21-heptaen-9-one] | < 10
CC1CCNC(=O)OCc2cccc(n2)-c2n[nH]c3ccc(cc23)O1 (stereo not drawn) [Example 92, 13-methyl-8,14-dioxa-10,19,20,23-tetraazatetracyclo[13.5.2.1^2,6.0^18,21]tricosa-1(20),2(23),3,5,15(22),16,18(21)-heptaen-9-one] | < 10
O=C1NC[C@H](F)COc2ccc3[nH]nc(c3c2)-c2cnn(n2)CCO1 [Example 173, (12S)-12-fluoro-8,14-dioxa-4,5,10,19,20,23-hexaazatetracyclo[13.5.2.1^2,5.0^18,21]tricosa-1(20),2(23),3,15,17,21-hexaen-9-one] | < 10
C[C@H]1OC(=O)NCCCOc2ccc3[nH]nc(c3c2)-c2cc(F)cc1c2 (single isomer, unassigned) [Example 109, (7R)- or (7S)-4-fluoro-7-methyl-8,14-dioxa-10,19,20-triazatetracyclo[13.5.2.1^2,6.0^18,21]tricosa-1(20),2,4,6(23),15,17,21-heptaen-9-one] | < 10
CC1Cn2cc(cn2)-c2n[nH]c3ccc(cc23)O[C@H](C)CCNC(=O)O1 (stereo partly drawn) [Example 113, (13R)-7,13-dimethyl-8,14-dioxa-4,5,10,19,20-pentaazatetracyclo[13.5.2.1^2,5.0^18,21]tricosa-1(20),2(23),3,15(22),16,18(21)-hexaen-9-one] | < 10
C[C@@H]1CCNC(=O)OCc2cccc(n2)-c2n[nH]c3ccc(cc23)O1 [Example 114, (13R)-13-methyl-8,14-dioxa-10,19,20,23-tetraazatetracyclo[13.5.2.1^2,6.0^18,21]tricosa-1(20),2,4,6(23),15,17,21-heptaen-9-one] | < 10
C[C@@H]1CCNC(=O)OCc2cc(Cl)cc(n2)-c2n[nH]c3ccc(cc23)O1 [Example 125, (13R)-4-chloro-13-methyl-8,14-dioxa-10,19,20,23-tetraazatetracyclo[13.5.2.1^2,6.0^18,21]tricosa-1(20),2(23),3,5,15(22),16,18(21)-heptaen-9-one] | < 10
C[C@@H]1CCNC(=O)O[C@@H](C)c2cccc(n2)-c2n[nH]c3ccc(cc23)O1 [Example 150, (7S,13R)-7,13-dimethyl-8,14-dioxa-10,19,20,23-tetraazatetracyclo[13.5.2. 1^2,6.0^18,21]tricosa-1(20),2(23),3,5,15(22),16,18(21)-heptaen-9-one] | 10 to 100
O=C1NCCCOc2ccc3[nH]nc(c3c2)-c2cc(cc(CN3CCCCC3)c2)CO1 [Example 43] | 10 to 100
O=C1NCCCOc2ccc3[nH]nc(c3c2)-c2cc(cc(N3CCCC3)c2)CO1 [Example 12, 4-(pyrrolidin-1-yl)-8,14-dioxa-10,19,20-triazatetracyclo[13.5.2.1^2,6.0^18,21]tricosa-1(20),2,4,6(23),15,17,21-heptaen-9-one] | < 10
CC1CNC(=O)OCCn2cc(cn2)-c2n[nH]c3ccc(cc23)OC1 (stereo not drawn) [Example 93, 12-methyl-8,14-dioxa-4,5,10,19,20-pentaazatetracyclo[13.5.2.1^2,5.0^18,21]tricosa-1(20),2(23),3,15(22),16,18(21)-hexaen-9-one] | < 10
COCCc1cc2cc(c1)-c1n[nH]c3ccc(cc13)OCCCNC(=O)OC2 [Example 67, 4-(2-methoxyethyl)-8,14-dioxa-10,19,20-triazatetracyclo[13.5.2.1^2,6.0^18,21]tricosa-1(20),2(23),3,5,15(22),16,18(21)-heptaen-9-one] | < 10
C[C@@H]1CCNC(=O)O[C@H](C)c2cncc(n2)-c2n[nH]c3ccc(cc23)O1 [Example 155, (7R,13R)-7,13-dimethyl-8,14-dioxa-4,10,19,20,23-pentaazatetracyclo[13.5. 2.1^2,6.0^18,21]tricosa-1(20),2(23),3,5,15(22),16,18(21)-heptaen-9-one] | < 10

Next, values leading:

IC50 [nM] | SMILES
< 10 | O=C1NCCCOc2ccc3[nH]nc(c3c2)-c2cc(cc(N3C[C@@H]4C[C@H]3CO4)c2)CO1 [Example 40]
< 10 | COCCN(C)c1cc2cc(c1)-c1n[nH]c3ccc(cc13)OCCCNC(=O)OC2 [Example 26, 4-[(2-methoxyethyl)(methyl)amino]-8,14-dioxa-10,19,20-triazatetracyclo[13.5.2.1^2,6.0^18,21]tricosa-1(20),2,4,6(23),15,17,21-heptaen-9-one]
< 10 | O=C1NC[C@@H](F)COc2ccc3[nH]nc(c3c2)-c2cncc(n2)CO1 [Example 172, (12R)-12-fluoro-8,14-dioxa-4,10,19,20,23-pentaazatetracyclo[13.5.2.1^2,6.0^18,21]tricosa-1(20),2(23),3,5,15,17,21-heptaen-9-one]
< 10 | O=C1NCCCOc2ccc3[nH]nc(c3c2)-c2ccc(C3CC3)c(c2)CO1 [Example 69, 5-cyclopropyl-8,14-dioxa-10,19,20-triazatetracyclo[13.5.2.1^2,6.0^18,21]tricosa-1(20),2,4,6(23),15,17,21-heptaen-9-one]
< 10 | CC1CCNC(=O)OCc2cc(F)cc(c2)-c2n[nH]c3ccc(cc23)O1 (single isomer, unassigned) [Example 101, (13R) or (13S)-4-fluoro-13-methyl-8,14-dioxa-10,19,20-triazatetracyclo[13.5.2.1^2,6.0^18,21]tricosa-1(20),2(23),3,5,15(22),16,18(21)-heptaen-9-one]
< 10 | CC1CCNC(=O)OCc2cc(F)cc(c2)-c2n[nH]c3ccc(cc23)O1 (stereo not drawn) [Example 71, 4-fluoro-13-methyl-8,14-dioxa-10,19,20-triazatetracyclo[13.5.2.1^2,6.0^18,21]tricosa-1(20),2,4,6(23),15,17,21-heptaen-9-one]
< 10 | Cc1ccc2cc1COC(=O)NCCCOc1ccc3[nH]nc-2c3c1 [Example 11, 5-methyl-8,14-dioxa-10,19,20-triazatetracyclo[13.5.2.1^2,6.0^18,21]tricosa-1(20),2,4,6(23),15,17,21-heptaen-9-one]
< 10 | CCN(CC)c1cc2cc(c1)-c1n[nH]c3ccc(cc13)OCCCNC(=O)OC2 [Example 47, 4-(diethylamino)-8,14-dioxa-10,19,20-triazatetracyclo[13.5.2.1^2,6.0^18,21]tricosa-1(20),2,4,6(23),15,17,21-heptaen-9-one]
< 10 | O=C1NCCCOc2ccc3[nH]nc(c3c2)-c2cc(cc(CN3CCOCC3)c2)CO1 [Example 41, 4-[(morpholin-4-yl)methyl]-8,14-dioxa-10,19,20-triazatetracyclo[13.5.2.1^2,6.0^18,21]tricosa-1(20),2,4,6(23),15,17,21-heptaen-9-one]
< 10 | O=C1NCCCOc2ccc3[nH]nc(c3c2)-c2cncc(c2)CO1 [Example 1, 8,14-dioxa-4,10,19,20-tetraazatetracyclo[13.5.2.1^2,6.0^18,21]tricosa-1(20),2,4, 6(23),15,17,21-heptaen-9-one]
< 10 | CC1OC(=O)NCC[C@@H](C)Oc2ccc3[nH]nc(c3c2)-c2ccnc1n2 (single isomer, unassigned) [Example 131, (7R,13R)- or (7S,13R)-7,13-dimethyl-8,14-dioxa-5,10,19,20,23-penta azatetracyclo[13.5.2.1^2,6.0^18,21]tricosa-1(20),2,4,6(23),15,17,21-heptaen-9-one]
